Key:
[1] = standard LD50 test, intraperitoneal administration to mice; conditions: mouse, in vivo, ip, read-out: LD₅₀
Protocol: The toxicity of a representative number of compounds of the present invention was determined by using the standard LD₅₀ test.

HIV = experiment: in-vitro anti-HIV assay system as described in Mitsuya et al.; assay type: cell-based; conditions: for effective concentration: concentration of the drug at which effects were seen (3µM to 30µM)
Protocol: The anti-HIV activity of various compounds was tested using an in-vitro assay system as described in H Mitsuya et al; (Proc Natl. Acad.Sci. USA Vol 82 pp 7096-7100, October 1985).
From the information obtained the 50% effective dose (ED₅₀ value) was estimated and the results expressed as active (+) or very active (++).

## CC(C)Cn1c(=O)n(C)c(=O)c2nc(-c3ccc(/C=C/C(=O)O)cc3)[nH]c21 [(E)-4-(1,2,3,6-tetrahydro-3-isobutyl-1-methyl-2,6-dioxo-9H-purin-8-yl)cinnamic acid]
[1]
  LD50: > 100 mg/kg

## CC(C)Cn1c(=O)[nH]c(=O)c2nc(-c3ccc(/C=C/C(=O)O)cc3)[nH]c21 [(E)-4-(1,2,3,6-tetrahydro-3-isobutyl-2,6-dioxo-9H-purin-8-yl)cinnamic acid]
[1]
  LD50: > 100 mg/kg

## Cn1c(=O)[nH]c(=O)c2nc(-c3ccc(/C=C/C(=O)O)cc3)[nH]c21 [(E)-4-(1,2,3,6-tetrahydro-3-methyl-2,6-dioxo-9H-purin-8-yl)cinnamic acid]
[1]
  LD50: > 500 mg/kg

## O=C(O)/C=C/c1ccc(-c2nc3c(=O)n(Cc4ccccc4)c(=O)n(Cc4ccccc4)c3[nH]2)cc1 [(E)-4-(1,3-dibenzyl-1,2,3,6-tetrahydro-2,6-dioxo-9H-purin-8-yl)cinnamic acid]
HIV
  effective concentration: 3 to 15 µM
HIV; statement in words
  anti-HIV activity: particularly potent

## CCCCn1c(=O)c2nc(-c3ccc(/C=C/C(=O)O)cc3)[nH]c2n(CCCC)c1=O [(E)-4-(1,3-dibutyl-1,2,3,6-tetrahydro-2,6-dioxo-9H-purin-8-yl)cinnamic acid]
[1]
  LD50: > 100 mg/kg
HIV
  effective concentration: 30 µM

## CCCn1c(=O)n(Cc2ccccc2)c(=O)c2nc(-c3ccc(/C=C/C(=O)O)cc3)[nH]c21 [(E)-4-(1-Benzyl-1,2,3,6-tetrahydro-2,6-dioxo-3-propyl-9H-purin-8-yl)cinnamic acid]
HIV
  effective concentration: 30 µM

## CCCn1c(=O)c2nc(-c3ccc(/C=C/C(=O)O)cc3)[nH]c2n(Cc2ccccc2)c1=O [(E)-4-(3-Benzyl-1,2,3,6-tetrahydro-2,6-dioxo-1-propyl-9H-purin-8-yl)cinnamic acid]
HIV
  effective concentration: 30 µM

## Cn1c(=O)c2nc(-c3ccc(/C=C/C(=O)O)cc3)[nH]c2n(Cc2ccccc2)c1=O [(E)-4-(3-benzyl-1,2,3,6-tetrahydro-1-methyl-2,6-dioxo-9H-purin-8-yl)cinnamic acid]
[1]
  LD50: > 100 mg/kg

## CCCCn1c(=O)n(C)c(=O)c2nc(-c3ccc(/C=C/C(=O)O)cc3)[nH]c21 [(E)-4-(3-butyl-1,2,3,6-tetrahydro-1-methyl-2,6-dioxo-9H-purin-8-yl)cinnamic acid]
[1]
  LD50: > 100 mg/kg

Source: patent publication EP0243192B1, “Antiviral 8-Phenylxanthines” (THE WELLCOME FOUNDATION LIMITED, priority 1986, dated 1987)
